Experimental findings from PubChem BioAssay (NCI) are described below.

Several values for one entry are separate records, joined by “and”; a condition that tells them apart may be missing. Identical values can stand only once.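 96-well plates; 48 h exposure; 5 concentrations. Endpoints by linear interpolation between flanking doses. Not reached: highest tested concentration assigned. Abbreviation: GI50, concentration required for 50% inhibition of growth. TGI: total growth inhibition.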

Assay in all cases: NCI anticancer screen, dose series, 48 h
Assay [1] relates to BT-549 breast.
In assay [2] the test system is CAKI-1 renal.
Assay [3] relates to HCT-116 colon.
Assay [4] deals with HCT-15 colon.
Assay [5] has as its system K-562 leukemia.
Assay [6] relates to MALME-3M melanoma.
In assay [7] the test system is MDA-MB-435.
Assay [8] relates to OVCAR-4 ovarian.
The test system of assay [9] is SF-539 CNS.
For assay [10], the system named is TK-10 renal.

In the case of `COc1ccc(CNC(=O)c2ccc(-c3cc(-c4nnc(C)o4)ccc3C)cc2)cc1`, the GI50 in assay [1] was 13.3 µM; in [2], 19.5 µM; in assay [3] it was 14.6 µM; in [4] it was 19.9 µM; in assay [5], 11.2 µM; in [6] it was 5.37 µM. The GI50 is 10.6 µM in [7], 6.8 µM in assay [8], over 25 µM in assay [9] and over 25 µM in assay [10]. Further, the TGI in assay [1], in assay [2], in assay [3], in assay [4], in assay [5] and in [6] was over 25 µM in each case. Besides, the TGI in assay [7], in assay [8], in [9] and in assay [10] was over 25 µM in each case.
Turning to `CCCC(=O)Nc1cn(COC)c(C(=O)N2C[C@H]3C[C@@]34C2=CC(=O)c2[nH]cc(C)c24)n1`, the GI50 was 5.51 µM in assay [1]; 5.42 µM in assay [2]; 2.32 µM in [3]; 7.41 µM in [5]; 4.22 µM in assay [6]; 13.4 µM in [7]. Also, the GI50 in assay [9] is 1.87 µM. The TGI in assay [1] is 43.1 µM and 58.9 µM; in [2], 17.3 µM and > 100 µM; in [3] it was 50 µM and 12 µM; in assay [4], 50 µM and 72.2 µM; in assay [5], 50 µM and > 100 µM; in assay [6] it was 9.45 µM and 26 µM. Besides, the TGI in assay [7] was 26.2 µM and > 100 µM; in assay [8], 30 µM and 36.5 µM; in [9], 37.7 µM and 38.4 µM; in assay [10], 46.2 µM.
`Cc1cc(C)c2nccc(NCCCN(C)C)c2c1[N+](=O)[O-]`: the TGI in assay [1] is over 100 µM; in assay [2], over 100 µM; in [3], over 100 µM; in assay [4] it was 30.7 µM; in assay [5], over 100 µM; in assay [6] it was 36.4 µM. For the same compound, the TGI in [7] is over 100 µM; in assay [8], 30.2 µM; in [9], 84.8 µM; in assay [10], over 100 µM.
`NC(=O)c1c(NC(=O)c2cccc(C(F)(F)F)c2)sc2c1CCC(=O)C2`: the GI50 was 0.352 µM in assay [1]; 0.351 µM in assay [2]; 0.249 µM in [3]; 0.321 µM in assay [4]; 0.124 µM in [5]; 0.869 µM in assay [6]. The GI50 was 0.622 µM in [7], 0.292 µM in assay [8], 0.328 µM in [9] and 0.753 µM in assay [10]. Also, the TGI in [1] was 9.08 µM; in assay [2], 7.29 µM; in [3], over 32.2 µM; in assay [4], 1.82 µM; in [6] it was 3.73 µM; in assay [7], 7.68 µM. Moreover, the figures for the TGI in assay [8], in assay [9] and in [10] were 1.25 µM, 1.23 µM and 13.3 µM, respectively.
Consider `O=C(Nc1cccc(Cl)c1)c1cc(Cl)ccc1O`, for which the GI50 in assay [1] is 0.362 µM; in [2], 0.837 µM; in [3], 0.562 µM; in assay [4] it was 1.34 µM; in assay [5] it was 0.542 µM; in assay [6], 0.4 µM. For the same compound, the GI50 was 0.661 µM in assay [7], 1.46 µM in assay [8], 0.674 µM in [9] and 4.36 µM in assay [10]. Moreover, the TGI in assay [1] is 1.29 µM; in assay [2] it was 5.79 µM; in assay [3] it was 2.12 µM; in [5], over 100 µM; in assay [6], 2.66 µM; in assay [7] it was 5.99 µM. In addition, the TGI in assay [8] is over 100 µM; in assay [9] it was 12.4 µM; in assay [10], 12.6 µM.
As to `NCCNc1nc2ccccc2c2c(=O)c3cc(F)cc(Cl)c3sc12`, the GI50 was 1.55 µM in [1]; 1.41 µM in [2]; 0.694 µM in assay [3]; 1.18 µM in assay [4]; 0.261 µM in assay [5]; 1.83 µM in [6]. The GI50 in [7] is 1.73 µM; in assay [8], 1.7 µM; in assay [9], 1.7 µM. Also, the TGI is 2.93 µM in assay [1]; 2.8 µM in assay [2]; 1.99 µM in assay [3]; 2.5 µM in assay [4]; 1.03 µM in [5]; 3.35 µM in assay [6]. In addition, the TGI turned out to be 3.22 µM in assay [7], 3.41 µM in assay [8] and 3.08 µM in assay [9].
On to `Nc1ccc2c(SCC(=O)Nc3ccccc3-c3ccccc3NC(=O)CSc3c4ccccc4nc4cc(N)ccc34)c3ccccc3nc2c1`, for which the TGI in assay [1] is 85.1 µM; in assay [2], over 83.5 µM; in assay [3], 64.5 µM; in assay [4] it was over 93.8 µM; in assay [5] it was 28.3 µM; in assay [6] it was 56 µM. The TGI in [7] is over 73.5 µM; in [8], 78.9 µM; in assay [9], 64.8 µM; in assay [10] it was 75.3 µM.
Consider `NCCn1c2c(c3ccccc3c1=O)C(=O)c1ccccc1-2`, for which the GI50 is 2.42 µM in assay [1]; 0.129 µM in assay [2]; 0.234 µM in assay [3]; 0.271 µM in assay [4]; 0.231 µM in assay [5]; 0.577 µM in assay [6]. The GI50 in assay [7] was 0.897 µM; in assay [8], 0.982 µM; in assay [9], 0.211 µM; in assay [10] it was 0.778 µM. In addition, the TGI turned out to be 10.1 µM in [1]; 0.887 µM in assay [2]; 1.56 µM in assay [3]; 2.32 µM in assay [4]; 3.46 µM in assay [5]; 3.2 µM in assay [6]. Also, the TGI stood at 2.51 µM in [7], 3.48 µM in assay [8], 1.06 µM in assay [9] and 3.64 µM in assay [10].
As for `Cc1ccc2c(C(C[N+](=O)[O-])c3ccco3)c(-c3ccccc3)[nH]c2c1` (stereo unspecified), the GI50 in [1] was 48.8 µM; in assay [2], 5.63 µM; in assay [3], 19.8 µM; in assay [4] it was 7.28 µM; in [5], 5.19 µM; in assay [6], 21.8 µM. The GI50 in assay [7] was 3.04 µM; in [8] it was 69 µM; in assay [9] it was 30.6 µM; in [10], 12.3 µM. Further, the TGI in assay [1], in assay [2], in [3], in assay [4], in assay [5] and in assay [6] was over 100 µM throughout. The TGI in assay [7] was 10.8 µM; in [8] it was over 100 µM; in assay [9], over 100 µM; in assay [10] it was over 100 µM.
In the case of `CCCCCCCCCCCCNC(=O)[C@H]1CSC(c2ccsc2)N1` (stereo partly specified), the GI50 in assay [1] was 0.797 µM; in assay [2] it was 0.898 µM; in assay [3], 0.908 µM; in assay [4], 0.883 µM; in [5] it was 1.02 µM; in [6] it was 1.14 µM. Moreover, the GI50 in [7] is 0.68 µM; in assay [8], 0.911 µM; in assay [9], 0.902 µM; in assay [10], 0.897 µM. Besides, the TGI in assay [1] was 1.58 µM; in [2] it was 1.6 µM; in [3] it was 1.71 µM; in assay [4] it was 1.69 µM; in assay [5], 2.04 µM; in [6] it was 2.12 µM. The TGI came to 1.35 µM in assay [7], 1.73 µM in assay [8], 1.7 µM in assay [9] and 1.63 µM in [10].
Consider `NC1(C(=O)O)CSSC1`, for which the GI50 in [1] is 4.87 µM; in assay [2], 6.22 µM; in [3], 4.53 µM; in [4] it was 3.88 µM; in [5], 3.7 µM; in assay [6], 2.77 µM. Further, the GI50 in [7] was 3.54 µM; in [8] it was 5.44 µM; in assay [9], 7.55 µM; in assay [10] it was 3.42 µM. Also, the TGI in assay [1] was 40.2 µM; in assay [2], 40.5 µM; in [3] it was 84.5 µM; in assay [4], 84.7 µM; in assay [5] it was over 100 µM; in [6], 7.12 µM. Further, the TGI in assay [7] is 13.9 µM; in assay [8], 46.5 µM; in assay [9] it was over 100 µM; in assay [10] it was 24.3 µM.
Consider `O=c1c2ccccc2c(=O)c2c1sc1c(=O)c3ccc(O)cc3c(=O)c12`, for which the GI50 was 0.163 µM in assay [1]; 1.29 µM in assay [2]; 0.651 µM in assay [3]; 0.715 µM in assay [5]; 0.152 µM in assay [6]; 0.173 µM in assay [7]. In addition, the GI50 in [8] is 0.88 µM; in [9], 0.245 µM; in assay [10] it was 2.24 µM. The TGI was 0.33 µM in [1]; 3.26 µM in assay [2]; 3.9 µM in [3]; over 100 µM in [5]; 0.318 µM in assay [6]; 0.326 µM in assay [7]. Also, the TGI in assay [8] amounted to 2.1 µM; in assay [9] it was 0.661 µM; in [10] it was 3.97 µM.
